The text below walks through data of patent US8618023B2, “Microbiocides” (Syngenta Crop Protection, LLC, priority 2006, dated 2013).

For the molecule `Cn1cc(C(=O)NC2CC2c2ccc(Cl)cc2)c(C(F)F)n1` (centres unmarked) [Compound 1.001, 3-difluoromethyl-1-methyl-1H-pyrazole-4-carboxylic acid [2-(4-chlorophenyl)-cyclopropyl]-amide], the melting point amounted to 127 °C.
The figure for `O=C(N[C@@H]1C[C@]1(F)c1ccc(Cl)cc1)c1ccccc1C(F)(F)F` [Compound 6.004, N-[(1R,2S)-2-(4-chlorophenyl)-2-fluoro-cyclopropyl]-2-trifluoromethyl-benzamide] is 204 to 206 °C.

Broadly, the melting point is the temperature, or range, at which the solid turns liquid.
